Data: ChEMBL document CHEMBL1144430, “Convergent synthesis and pharmacology of substituted tetrazolyl-2-amino-3-(3-hydroxy-5-methyl-4-isoxazolyl)propionic acid analogues” (J Med Chem, 2005)
pEC50, pIC50, pKi: −log10 of the molar value.

Columns and labels:
[1] = target: Glutamate receptor ionotropic, AMPA (Rattus norvegicus, UniProt P19490+P19491+P19492+P19493); assay: Displacement of [3H]AMPA from Ionotropic glutamate receptor of in rat brain synaptosomes; type: subcellular
Glutamate NMDA receptor = assay: Displacement of [3H]-CGP- 39653 from N-methyl-D-aspartate glutamate receptor of rat brain synaptosomes; type: subcellular
[2] = In vitro activity at Ionotropic glutamate receptor using cortical wedge assays
[3] = target: Glutamate receptor ionotropic, kainate; assay: Displacement of [3H]KA from glutamate receptor of rat brain synaptosomes; type: subcellular
Glutamate receptor 2 = Glutamate receptor 2 (Homo sapiens, UniProt P42262); assay: Binding affinity for ionotropic Glutamate receptor AMPA 2 expressed in Sf9 cells
Glutamate receptor 3 = Glutamate receptor 3 (Homo sapiens, UniProt P42263); assay: Binding affinity for ionotropic Glutamate receptor AMPA 3 expressed in Sf9 cells
[4] = target: Glutamate receptor ionotropic, kainate 1 (Homo sapiens, UniProt P39086); assay: Binding affinity for kainate Glutamate receptor GluR5 expressed in Sf9 cells
Glutamate receptor 4 = Glutamate receptor 4 (Homo sapiens, UniProt P48058); assay: Binding affinity for ionotropic Glutamate receptor AMPA 4 expressed in Sf9 cells
[5] = target: Glutamate receptor ionotropic, kainate 2 (Homo sapiens, UniProt Q13002); assay: Binding affinity for kainate Glutamate receptor GluR6 expressed in Sf9 cells
Glutamate receptor 1 = Glutamate receptor 1 (Homo sapiens, UniProt P42261); assay: Binding affinity for ionotropic Glutamate receptor AMPA 1 expressed in Sf9 cells
Sequence of Glutamate receptor 1 (P42261 whole entry): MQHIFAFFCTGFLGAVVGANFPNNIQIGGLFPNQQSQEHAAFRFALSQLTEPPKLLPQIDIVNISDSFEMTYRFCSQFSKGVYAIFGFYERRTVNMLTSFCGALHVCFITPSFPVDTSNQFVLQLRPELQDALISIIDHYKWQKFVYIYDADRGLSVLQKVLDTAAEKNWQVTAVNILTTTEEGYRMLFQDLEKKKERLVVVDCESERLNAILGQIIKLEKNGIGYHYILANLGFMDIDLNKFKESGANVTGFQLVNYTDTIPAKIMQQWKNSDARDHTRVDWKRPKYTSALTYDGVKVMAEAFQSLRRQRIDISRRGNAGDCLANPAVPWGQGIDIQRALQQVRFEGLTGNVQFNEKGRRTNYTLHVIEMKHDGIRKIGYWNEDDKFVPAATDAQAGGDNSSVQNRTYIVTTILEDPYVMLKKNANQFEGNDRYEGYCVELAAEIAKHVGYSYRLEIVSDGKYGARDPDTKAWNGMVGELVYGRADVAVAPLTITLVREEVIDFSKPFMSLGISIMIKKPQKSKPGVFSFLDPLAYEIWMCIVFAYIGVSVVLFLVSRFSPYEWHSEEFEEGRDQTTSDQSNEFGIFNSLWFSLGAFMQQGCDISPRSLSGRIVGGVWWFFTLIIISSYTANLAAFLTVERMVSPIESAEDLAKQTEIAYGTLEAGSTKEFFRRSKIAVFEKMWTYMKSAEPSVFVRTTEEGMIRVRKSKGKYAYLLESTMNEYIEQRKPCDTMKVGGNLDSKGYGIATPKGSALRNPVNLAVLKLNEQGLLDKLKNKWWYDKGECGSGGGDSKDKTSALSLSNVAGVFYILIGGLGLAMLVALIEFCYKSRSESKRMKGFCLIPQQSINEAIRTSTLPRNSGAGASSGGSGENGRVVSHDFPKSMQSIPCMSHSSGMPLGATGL

Sequence of Glutamate receptor 4 (P48058 whole entry): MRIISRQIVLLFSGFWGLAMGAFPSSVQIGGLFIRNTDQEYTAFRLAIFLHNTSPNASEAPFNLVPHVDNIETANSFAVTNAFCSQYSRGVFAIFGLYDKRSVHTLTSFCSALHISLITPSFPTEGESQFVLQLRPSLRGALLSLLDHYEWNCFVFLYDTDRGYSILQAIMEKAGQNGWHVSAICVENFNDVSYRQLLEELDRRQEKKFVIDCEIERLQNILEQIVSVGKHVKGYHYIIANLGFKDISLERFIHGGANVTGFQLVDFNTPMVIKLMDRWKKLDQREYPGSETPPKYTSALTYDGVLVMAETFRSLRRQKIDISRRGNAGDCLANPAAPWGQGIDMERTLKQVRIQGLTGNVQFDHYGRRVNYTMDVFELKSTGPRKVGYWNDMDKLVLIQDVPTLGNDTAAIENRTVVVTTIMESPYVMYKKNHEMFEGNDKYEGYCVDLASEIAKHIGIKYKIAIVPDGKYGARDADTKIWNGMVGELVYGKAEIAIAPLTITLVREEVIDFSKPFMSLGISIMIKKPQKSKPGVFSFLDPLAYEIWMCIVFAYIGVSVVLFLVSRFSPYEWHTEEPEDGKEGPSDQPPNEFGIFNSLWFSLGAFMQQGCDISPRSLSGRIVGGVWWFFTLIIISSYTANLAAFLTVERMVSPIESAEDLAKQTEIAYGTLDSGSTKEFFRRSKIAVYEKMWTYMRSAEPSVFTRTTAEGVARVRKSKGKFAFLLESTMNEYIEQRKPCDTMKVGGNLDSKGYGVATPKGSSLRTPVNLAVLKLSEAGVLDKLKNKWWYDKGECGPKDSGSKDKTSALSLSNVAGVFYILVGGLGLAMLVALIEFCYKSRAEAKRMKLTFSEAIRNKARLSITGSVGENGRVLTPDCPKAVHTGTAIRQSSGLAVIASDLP
Sequence of Glutamate receptor 3 (P42263 whole entry): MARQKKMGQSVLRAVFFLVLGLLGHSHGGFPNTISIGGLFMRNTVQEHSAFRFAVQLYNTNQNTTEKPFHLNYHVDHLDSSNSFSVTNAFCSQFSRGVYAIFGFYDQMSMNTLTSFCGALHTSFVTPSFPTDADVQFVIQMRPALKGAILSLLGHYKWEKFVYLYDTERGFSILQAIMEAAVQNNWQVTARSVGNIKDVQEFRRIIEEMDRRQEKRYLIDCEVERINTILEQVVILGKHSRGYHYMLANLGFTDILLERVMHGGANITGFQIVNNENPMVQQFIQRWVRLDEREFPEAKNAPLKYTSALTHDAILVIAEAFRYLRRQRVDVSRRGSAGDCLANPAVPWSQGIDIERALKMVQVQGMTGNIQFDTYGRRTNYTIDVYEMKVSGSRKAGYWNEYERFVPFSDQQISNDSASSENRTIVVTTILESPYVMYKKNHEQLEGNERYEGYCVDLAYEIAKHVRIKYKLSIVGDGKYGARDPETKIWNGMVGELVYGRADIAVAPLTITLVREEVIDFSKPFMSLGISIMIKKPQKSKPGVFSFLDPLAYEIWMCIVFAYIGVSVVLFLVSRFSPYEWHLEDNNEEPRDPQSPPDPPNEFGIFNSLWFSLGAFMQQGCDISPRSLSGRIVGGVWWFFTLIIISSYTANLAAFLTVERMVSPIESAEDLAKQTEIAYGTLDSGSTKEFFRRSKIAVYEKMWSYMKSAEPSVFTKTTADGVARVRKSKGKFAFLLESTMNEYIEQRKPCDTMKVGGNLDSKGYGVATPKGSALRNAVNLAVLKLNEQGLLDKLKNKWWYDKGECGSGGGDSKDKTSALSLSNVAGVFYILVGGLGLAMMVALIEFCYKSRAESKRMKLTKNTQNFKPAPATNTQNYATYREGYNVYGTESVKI
Sequence of Glutamate receptor ionotropic, kainate 2 (Q13002 whole entry): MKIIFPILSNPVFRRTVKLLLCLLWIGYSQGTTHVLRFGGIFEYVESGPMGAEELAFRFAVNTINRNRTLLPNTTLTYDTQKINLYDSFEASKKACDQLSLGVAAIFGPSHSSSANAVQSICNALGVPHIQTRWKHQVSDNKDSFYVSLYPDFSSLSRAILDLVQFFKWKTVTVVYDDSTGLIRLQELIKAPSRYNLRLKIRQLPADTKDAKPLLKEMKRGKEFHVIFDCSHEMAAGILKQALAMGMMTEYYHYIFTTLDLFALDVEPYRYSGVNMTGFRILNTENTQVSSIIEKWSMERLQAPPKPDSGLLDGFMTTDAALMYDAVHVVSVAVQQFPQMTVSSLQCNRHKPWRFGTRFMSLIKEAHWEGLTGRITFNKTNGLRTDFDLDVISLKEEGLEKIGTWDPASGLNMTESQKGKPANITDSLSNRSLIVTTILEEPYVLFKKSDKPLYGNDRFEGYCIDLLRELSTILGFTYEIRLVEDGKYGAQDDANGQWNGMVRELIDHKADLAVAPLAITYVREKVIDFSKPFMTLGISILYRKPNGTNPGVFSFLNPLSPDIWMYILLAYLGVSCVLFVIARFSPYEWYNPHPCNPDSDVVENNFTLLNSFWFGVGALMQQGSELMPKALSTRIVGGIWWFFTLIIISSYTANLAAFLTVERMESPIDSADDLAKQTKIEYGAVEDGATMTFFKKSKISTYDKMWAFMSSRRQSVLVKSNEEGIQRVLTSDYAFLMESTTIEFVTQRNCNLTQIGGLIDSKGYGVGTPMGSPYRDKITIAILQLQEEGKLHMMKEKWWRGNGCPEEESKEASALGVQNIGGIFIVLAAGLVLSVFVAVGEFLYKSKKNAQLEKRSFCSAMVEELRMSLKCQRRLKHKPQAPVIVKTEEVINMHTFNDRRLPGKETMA
Sequence of Glutamate receptor 2 (P42262 whole entry): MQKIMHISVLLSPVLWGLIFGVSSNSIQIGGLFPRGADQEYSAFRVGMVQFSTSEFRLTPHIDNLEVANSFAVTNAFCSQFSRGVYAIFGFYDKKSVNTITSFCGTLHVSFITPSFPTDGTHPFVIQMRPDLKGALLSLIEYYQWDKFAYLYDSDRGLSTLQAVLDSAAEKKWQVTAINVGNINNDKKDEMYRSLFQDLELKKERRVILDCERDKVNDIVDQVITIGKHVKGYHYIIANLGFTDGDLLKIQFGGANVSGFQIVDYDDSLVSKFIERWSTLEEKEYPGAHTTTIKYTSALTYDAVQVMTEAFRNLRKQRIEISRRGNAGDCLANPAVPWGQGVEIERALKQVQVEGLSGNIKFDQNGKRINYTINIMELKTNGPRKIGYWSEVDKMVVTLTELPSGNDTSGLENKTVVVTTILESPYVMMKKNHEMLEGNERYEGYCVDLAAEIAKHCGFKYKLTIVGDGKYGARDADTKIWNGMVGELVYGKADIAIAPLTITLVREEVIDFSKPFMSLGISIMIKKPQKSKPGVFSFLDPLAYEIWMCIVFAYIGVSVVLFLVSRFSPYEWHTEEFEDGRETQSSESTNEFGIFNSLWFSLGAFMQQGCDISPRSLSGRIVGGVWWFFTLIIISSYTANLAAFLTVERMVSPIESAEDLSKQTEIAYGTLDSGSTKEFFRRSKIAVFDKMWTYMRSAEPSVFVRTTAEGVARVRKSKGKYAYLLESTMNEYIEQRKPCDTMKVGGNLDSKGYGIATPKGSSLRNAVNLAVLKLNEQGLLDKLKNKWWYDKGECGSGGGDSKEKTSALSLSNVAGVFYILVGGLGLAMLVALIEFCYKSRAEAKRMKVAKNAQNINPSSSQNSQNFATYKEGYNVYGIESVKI

| Compound | pIC50 [1] | pKi (Glutamate NMDA receptor) | pEC50 [2] | pIC50 [3] | pKi (Glutamate receptor 2) | pKi (Glutamate receptor 3) | pKi [4] | pKi (Glutamate receptor 4) | pKi [5] | pKi (Glutamate receptor 1) |
| --- | --- | --- | --- | --- | --- | --- | --- | --- | --- | --- |
| CCCn1nnnc1-c1onc(O)c1CC(N)C(=O)O (centres undefined) | < 4.00 | < 4.00 |  | < 4.00 |  |  |  |  |  |  |
| Cn1nnc(-c2o[nH]c(=O)c2C[C@H](N)C(=O)O)n1 | 8.05 | < 3.00 |  |  |  |  | 7.09 |  | 4.73 |  |
| Cn1nnc(-c2onc(O)c2CC(N)C(=O)O)n1 (racemic) | 7.57 | < 4.00 |  |  |  |  |  |  |  |  |
| CCCn1nnc(-c2onc(O)c2CC(N)C(=O)O)n1 (centres undefined) | 5.60 | < 4.00 | 4.49 | < 4.00 | 5.79 | 5.93 | 5.26 | 6.14 | < 4.00 | 5.29 |
| CCn1nnc(-c2o[nH]c(=O)c2CC(N)C(=O)O)n1 (centres undefined) | 6.87 | < 4.00 | 5.46 | < 4.00 | 7.10 | 7.35 | 5.53 | 7.35 | < 4.00 | 6.84 |

Results, then the molecule that gave them:

| pIC50 [1] | pKi (Glutamate NMDA receptor) | pEC50 [2] | pIC50 [3] | pKi (Glutamate receptor 2) | pKi (Glutamate receptor 3) | pKi [4] | pKi (Glutamate receptor 4) | pKi [5] | pKi (Glutamate receptor 1) | Compound |
| --- | --- | --- | --- | --- | --- | --- | --- | --- | --- | --- |
| 4.27 | < 4.00 | < 3.00 | < 4.00 |  |  |  |  |  |  | Cn1nnnc1-c1onc(O)c1CC(N)C(=O)O (centres undefined) |
| 5.21 | < 4.00 | 4.15 | < 4.00 | 5.53 | 5.43 | 4.47 | 5.63 | < 4.00 | 5.00 | CC(C)n1nnc(-c2onc(O)c2CC(N)C(=O)O)n1 (centres undefined) |
| 4.57 | < 4.00 |  | < 4.00 |  |  |  |  |  |  | CCn1nnnc1-c1onc(O)c1CC(N)C(=O)O (centres undefined) |
| < 4.00 | < 4.00 |  | < 4.00 |  |  |  |  |  |  | CC(C)n1nnnc1-c1onc(O)c1CC(N)C(=O)O (centres undefined) |
